# Test results reported in patent US9441012B2, “Fluorinated epoxyketone-based compounds and uses thereof as proteasome inhibitors” (FLUORINOV PHARMA INC., priority 2012, dated 2016).
# Experiments:
# Assay in all cases: NCI 60 human tumor cell line screen (SRB)
# Assay type in all cases: cell-based
# BT-549 = BT-549 (Breast Cancer); 48 h
# Text: (§1) Representative compounds of Formula I were screened using the National Cancer Institute (NCI) screening panel, which consists of a panel of 60 different human tumor cell lines, representing leukemia [CCRF-CEM, HL-60 (TB), K-562, MOLT-4, SR], melanoma [LOX IMVI, MALME-3M, M14, SMDA-MB-435, SK-MEL-2, SK-MEL-28, SK-MEL-5, UACC-257 and UACC-62] and cancers of the lung [A549/ATCC, EKVX, HOP-62, HOP-93, NCI-H226, NCI-H23, NCI-H322M, NCI-H460], colon [COLO 205, HCT-116, HCT-15, HT29, KM12, SW-620], brain [SF-268, SF-295, SF-539, SNB-19, SNB-75, U251], ovary [IGROV1, OVCAR-3, OVCAR-4, OVCAR-5, OVCAR-8, NCI/ADR-RES, SK-OV-3], breast [MCF7, MDA-MB-231, BT-549, T-47D, MDA-MB-468], prostate [PC-3, DU-145], and renal[786-0, A498, ACHN, CAKI-1, RXF-393, SN12C, TK-10, UO-31] cancers.
# (§2) After 24 h, two plates of each cell line are fixed in situ with TCA, to represent a measurement of the cell population for each cell line at the time of drug addition (Tz). Experimental drugs are solubilised in dimethyl sulfoxide at 400-fold the desired final maximum test concentration and stored frozen prior to use. At the time of drug addition, an aliquot of frozen concentrate is thawed and diluted to twice the desired final maximum test concentration with complete medium containing 50 μg/ml gentamicin. Additional four, 10-fold or ½ log serial dilutions are made to provide a total of five drug concentrations plus control. Aliquots of 100 μl of these different drug dilutions are added to the appropriate microtiter wells already containing 100 μl of medium, resulting in the required final drug concentrations.
# (§3) Following drug addition, the plates are incubated for an additional 48 h at 37° C., 5% CO2, 95% air, and 100% relative humidity. For adherent cells, the assay is terminated by the addition of cold TCA (trichloroacetic acid). Cells are fixed in situ by the gentle addition of 50 μl of cold 50% (w/v) TCA (final concentration, 10% TCA) and incubated for 60 minutes at 4° C. The supernatant is discarded, and the plates are washed five times with tap water and air dried. Sulforhodamine B (SRB) solution (100 μl) at 0.4% (w/v) in 1% acetic acid is added to each well, and plates are incubated for 10 minutes at room temperature. After staining, unbound dye is removed by washing five times with 1% acetic acid and the plates are air dried. Bound stain is subsequently solubilised with 10 mM trizma base, and the absorbance is read on an automated plate reader at a wavelength of 515 nm. For suspension cells, the methodology is the same except that the assay is terminated by fixing settled cells at the bottom of the wells by gently adding 50 μl of 80% TCA (final concentration, 16% TCA). Using the seven absorbance measurements [time zero, (Tz), control growth, (C), and test growth in the presence of drug at the five concentration levels (Ti)], the percentage growth is calculated at each of the drug concentration levels. Percentage growth inhibition is calculated as: [(Ti−Tz)/(C−Tz)]×100 for concentrations in which Ti>/=Tz and [(Ti−Tz)/Tz]×100 for concentrations in which Ti<Tz.
# (§4) Three dose response parameters are calculated for each experimental agent. Growth inhibition of 50% (GI50) is calculated from [(Ti−Tz)/(C−Tz)]100=50, which is the drug concentration resulting in a 50% reduction in the net protein increase (as measured by SRB staining) in control cells during the drug incubation. The drug concentration resulting in total growth inhibition (TGI) is calculated from Ti=Tz. The LC50 (concentration of drug resulting in a 50% reduction in the measured protein at the end of the drug treatment as compared to that at the beginning) indicating a net loss of cells following treatment is calculated from [(Ti−Tz)/Tz]×100=−50. Values are calculated for each of these three parameters if the level of activity is reached. However, if the effect is not reached or is exceeded, the value for that parameter is expressed as greater or less than the maximum or minimum concentration tested.
# DU-145 = DU-145 (Prostate Cancer); 48 h
# Text: as §1, §2, §3, §4
# HCT-15 = HCT-15 (Colon Cancer); 48 h
# Text: as §1, §2, §3, §4
# IGROV1 = IGROV1 (Ovarian Cancer); 48 h
# Text: as §1, §2, §3, §4
# MALME-3M = MALME-3M (Melanoma); 48 h
# Text: as §1, §2, §3, §4
# OVCAR-4 = OVCAR-4 (Ovarian Cancer); 48 h
# Text: as §1, §2, §3, §4
# PC-3 = PC-3 (Prostate Cancer); 48 h
# Text: as §1, §2, §3, §4
# SF-268 = SF-268 (CNS Cancer); 48 h
# Text: as §1, §2, §3, §4
# SF-295 = SF-295 (CNS Cancer); 48 h
# Text: as §1, §2, §3, §4
# SK-MEL-5 = SK-MEL-5 (Melanoma); 48 h
# Text: as §1, §2, §3, §4
# SK-OV-3 = SK-OV-3 (Ovarian Cancer); 48 h
# Text: as §1, §2, §3, §4
# U251 = U251 (CNS Cancer); 48 h
# Text: as §1, §2, §3, §4
# UACC-62 = UACC-62 (Melanoma); 48 h
# Text: as §1, §2, §3, §4
SMILES,Log10GI50 (BT-549),Log10LC50 (BT-549),Log10TGI50 (BT-549),Log10GI50 (DU-145),Log10LC50 (DU-145),Log10TGI50 (DU-145),Log10GI50 (HCT-15),Log10LC50 (HCT-15),Log10TGI50 (HCT-15),Log10GI50 (MALME-3M),Log10LC50 (MALME-3M),Log10TGI50 (MALME-3M),Log10GI50 (OVCAR-4),Log10TGI50 (OVCAR-4),Log10GI50 (PC-3),Log10LC50 (PC-3),Log10TGI50 (PC-3),Log10GI50 (SF-268),Log10LC50 (SF-268),Log10TGI50 (SF-268),further results
"C[C@]1(C(=O)[C@H](Cc2ccccc2)NC(=O)[C@H](COC(F)F)NC(=O)[C@H](COC(F)F)NC(=O)CN2CCOCC2)CO1 [Example 26, (S)-N-{(S)-1-[(S)-1-Benzyl-2-((R)-2-methyl-oxiranyl)-2-oxo-ethylcarbamoyl]-2-difluoromethoxyethyl}-3-difluoromethoxy-2-(2-morpholin-4-yl-acetylamino)-propio-namide]",−7.73,−7.05,−7.39,−7.27,>−4.00,−5.32,−6.47,>−4.00,>−4.00,−7.51,>−4.00,−6.64,−7.50,−6.75,−7.45,−5.14,−6.80,−7.60,>−4.00,−7.14,Log10GI50 (IGROV1): −7.43; Log10LC50 (IGROV1): >−4.00; Log10LC50 (OVCAR-4): >−4.00; Log10GI50 (SF-295): −7.68; Log10LC50 (SF-295): −6.49; Log10TGI50 (SF-295): −7.26; Log10GI50 (SK-MEL-5): −7.60; Log10LC50 (SK-MEL-5): −6.49; Log10TGI50 (SK-MEL-5): −7.17; Log10GI50 (SK-OV-3): −7.30; Log10TGI50 (SK-OV-3): −6.60; Log10GI50 (U251): −7.44; Log10LC50 (U251): >−4.00; Log10TGI50 (U251): −6.75; Log10GI50 (UACC-62): −7.35; Log10LC50 (UACC-62): −4.58; Log10TGI50 (UACC-62): −6.63
C[C@]1(C(=O)[C@H](Cc2ccccc2)NC(=O)[C@H](Cc2ccccc2)NC(=O)[C@H](COC(F)F)NC(=O)CN2CCOCC2)CO1 [Example 29],−7.26,−4.94,−6.59,−7.00,−4.09,−5.05,−6.20,>−4.00,>−4.00,−6.69,>−4.00,−6.15,−6.98,>−4.00,−7.04,>−4.00,−6.40,−7.27,>−4.00,−6.50,Log10GI50 (IGROV1): −6.67; Log10LC50 (IGROV1): >−4.00; Log10TGI50 (IGROV1): >−4.00; Log10GI50 (SF-295): −7.19; Log10LC50 (SF-295): −5.94; Log10TGI50 (SF-295): −6.55; Log10GI50 (SK-MEL-5): −7.22; Log10LC50 (SK-MEL-5): −6.20; Log10TGI50 (SK-MEL-5): −6.66; Log10GI50 (SK-OV-3): −6.46; Log10LC50 (SK-OV-3): >−4.00; Log10TGI50 (SK-OV-3): −5.78; Log10GI50 (U251): −6.98; Log10LC50 (U251): >−4.00; Log10TGI50 (U251): −5.70; Log10GI50 (UACC-62): −7.00; Log10LC50 (UACC-62): >−4.00; Log10TGI50 (UACC-62): −6.37
"Cc1ncc(C(=O)N[C@@H](COC(F)F)C(=O)N[C@@H](COC(F)F)C(=O)N[C@@H](Cc2ccccc2)C(=O)[C@@]2(C)CO2)s1 [Example 1, 2-methyl-thiazole-5-carboxylic acid ((S)-1-{(S)-1-[(S)-1-benzyl-2-((R)-2-methyloxiranyl)-2-oxo-ethylcarbamoyl]-2-difluoromethoxyethylcarbamoyl}-2-difluoromethoxyethyl)-amide]",−7.49,−5.74,−6.87,−6.58,−5.02,−5.64,−5.65,−4.16,−4.93,−7.30,>−4.00,−6.38,−6.29,>−4.00,−6.48,>−4.00,−4.99,−6.98,>−4.00,−5.90,Log10LC50 (OVCAR-4): >−4.00; Log10GI50 (SF-295): −7.17; Log10LC50 (SF-295): −4.88; Log10TGI50 (SF-295): −6.24; Log10GI50 (SK-MEL-5): −7.15; Log10LC50 (SK-MEL-5): −5.47; Log10TGI50 (SK-MEL-5): −6.34; Log10GI50 (SK-OV-3): −6.06; Log10LC50 (SK-OV-3): >−4.00; Log10TGI50 (SK-OV-3): >−4.00; Log10GI50 (U251): −6.55; Log10LC50 (U251): >−4.00; Log10TGI50 (U251): −4.94; Log10GI50 (UACC-62): −6.68; Log10LC50 (UACC-62): −4.95; Log10TGI50 (UACC-62): −5.78
